Laboratory results from ChEMBL document CHEMBL3045776, “[1,2,4]Triazolo[4,3-a]quinoxaline: synthesis, antiviral, and antimicrobial activities” (Med Chem Res, 2012).
In brackets after ≈: the same amount, converted by molar mass.

Columns and labels:
[1] = tested on: Human alphaherpesvirus 1; assay: Antiviral activity against Human herpesvirus 1 infected African green monkey Vero cells assessed as reduction of virus induced plaque formation after 66 hr; assay type: functional; conditions: Human alphaherpesvirus 1, 66 h
[2] = Cytotoxicity against Chlorocebus aethiops (African green monkey) Vero cells; assay type: cell-based; conditions: chlorocebus sabaeus, read-out: CD50 (the source's name)
[3] = tested on: Human alphaherpesvirus 1; assay: Antiviral activity against Human herpesvirus 1 infected African green monkey Vero cells assessed as reduction of virus induced plaque formation at […] after 66 hr; assay type: functional; parameters: scale not given: the % may be the effect or the level left
[4] = tested on: Candida albicans; assay: Antifungal activity against Candida albicans after 48 hr by agar dilution method; assay type: functional
[5] = tested on: Candida albicans; assay: Antifungal activity against Candida albicans at 1000 ug/ml after 72 hr by disk diffusion method; assay type: functional; conditions: read-out: IZ
[6] = tested on: Bacillus subtilis; assay: Antibacterial activity against Bacillus subtilis at 500 ug/disk after 24 hr by disk diffusion method; assay type: functional; conditions: read-out: IZ
[7] = tested on: Candida albicans; assay: Antifungal activity against Candida albicans at 500 ug/disk after 72 hr by disk diffusion method; assay type: functional; conditions: read-out: IZ
[8] = tested on: Staphylococcus aureus; assay: Antibacterial activity against Staphylococcus aureus at 500 ug/disk after 24 hr by disk diffusion method; assay type: functional; conditions: read-out: IZ
[9] = tested on: Bacillus subtilis; assay: Antibacterial activity against Bacillus subtilis after 24 hr by agar dilution method; assay type: functional
[10] = tested on: Staphylococcus aureus; assay: Antibacterial activity against Staphylococcus aureus after 24 hr by agar dilution method; assay type: functional
[11] = tested on: Escherichia coli; assay: Antibacterial activity against Escherichia coli after 24 hr by agar dilution method; assay type: functional
[12] = tested on: Escherichia coli; assay: Antibacterial activity against Escherichia coli at 500 ug/disk after 24 hr by disk diffusion method; assay type: functional; conditions: read-out: IZ
[13] = tested on: Bacillus subtilis; assay: Antibacterial activity against Bacillus subtilis at 50 ug/ml after 24 hr by disk diffusion method; conditions: read-out: IZ
[14] = tested on: Escherichia coli; assay: Antibacterial activity against Escherichia coli at 50 ug/ml after 24 hr by disk diffusion method; conditions: read-out: IZ
[15] = tested on: Staphylococcus aureus; assay: Antibacterial activity against Staphylococcus aureus at 50 ug/ml after 24 hr by disk diffusion method; conditions: read-out: IZ

Compound | MIC [1] [µg/mL] | CC50 [2] [µg/mL] | Activity [3] [%] | zone of inhibition at 500 µg/disc [8] [mm] | MIC [11] [µg/mL] | zone of inhibition at 500 µg/disc [12] [mm] | other results
Cc1ccc2nc(Sc3nnc(-c4ccccc4O)o3)c3nnc(N)n3c2c1 | 80 (≈ 204 µM) | 160 (≈ 409 µM) | <25 |  |  |  | 
Clc1ccccc1C(c1ccccc1)(c1ccccc1)n1ccnc1 [CLOTRIMAZOLE] |  |  |  |  |  |  | MIC [4]: 48 µg/mL (≈ 139 µM); zone of inhibition at 1000 µg/mL [5]: > 20 mm
Cc1ccc2nc(Cl)c3nnc(NC(=S)Nc4ccccc4)n3c2c1 | 20 (≈ 54.2 µM) | 200 (≈ 542 µM) | 25 |  |  |  | 
Cc1ccc2nc(Sc3nnc(-c4cccs4)n3-c3ccccc3)c3nnc(N)n3c2c1 | 80 (≈ 175 µM) | 160 (≈ 350 µM) | <25 | 15 | 98 (≈ 215 µM) | 20 | zone of inhibition at 500 µg/disc [6]: 15 mm; MIC [4]: 78 µg/mL (≈ 171 µM); zone of inhibition at 500 µg/disc [7]: 20 mm; MIC [9]: 91 µg/mL (≈ 199 µM); MIC [10]: 124 µg/mL (≈ 272 µM)
CC(=O)c1ccc(Nc2nc3ccc(C)cc3n3c(NC(=O)c4ccccc4)nnc23)cc1 |  |  |  | 15 | 67 (≈ 154 µM) | 15 | zone of inhibition at 500 µg/disc [6]: 10 mm; MIC [10]: 94 µg/mL (≈ 215 µM)
Cc1ccc2nc(Sc3nnc(-c4cccnc4)o3)c3nnc(N)n3c2c1 | 80 (≈ 213 µM) | 160 (≈ 425 µM) | <25 |  |  | 10 | 
COc1ccc(/C=N/c2n[nH]c(Sc3nc4ccc(C)cc4n4c(N)nnc34)n2)cc1OC |  |  |  | 10 | 102 (≈ 221 µM) | 15 | zone of inhibition at 500 µg/disc [6]: 10 mm; MIC [4]: 112 µg/mL (≈ 243 µM); zone of inhibition at 500 µg/disc [7]: 20 mm
Cc1ccc2nc(N3CCN(c4ccccc4C)CC3)c3nnc(N)n3c2c1 |  |  |  |  | 85 (≈ 228 µM) | 10 | zone of inhibition at 500 µg/disc [6]: 10 mm; zone of inhibition at 500 µg/disc [7]: 10 mm
COC(=O)c1cc(=O)n2nc3c(Cl)nc4ccc(C)cc4n3c2n1 | 80 (≈ 233 µM) | 160 (≈ 465 µM) | <25 |  |  |  | 
O=C(O)c1cn(C2CC2)c2cc(N3CCNCC3)c(F)cc2c1=O [CIPROFLOXACIN] |  |  |  |  | 57 (≈ 172 µM) |  | MIC [9]: 62 µg/mL (≈ 187 µM); zone of inhibition at 50 µg/mL [13]: 15 mm; zone of inhibition at 50 µg/mL [14]: > 20 mm; zone of inhibition at 50 µg/mL [15]: > 20 mm; MIC [10]: 76 µg/mL (≈ 229 µM)
CCOC(=O)c1cnc2n(nc3c(Cl)nc4ccc(C)cc4n32)c1=O |  |  |  | 10 |  |  | 
CCNC(=S)Nc1nnc2c(Cl)nc3ccc(C)cc3n12 | 80 (≈ 249 µM) | 160 (≈ 499 µM) | <25 | 15 | 87 (≈ 271 µM) | 15 | zone of inhibition at 500 µg/disc [6]: 10 mm; MIC [4]: 89 µg/mL (≈ 277 µM); zone of inhibition at 500 µg/disc [7]: 20 mm; MIC [10]: 115 µg/mL (≈ 358 µM)
CC(=O)Nc1nnc2c(N3CCN(c4ccccc4C)CC3)nc3ccc(C)cc3n12 |  | > 200 |  |  |  |  | 
COc1ccc(/C=N/c2nnc3c(Cl)nc4ccc(C)cc4n23)cc1OC | 80 (≈ 210 µM) | 160 (≈ 419 µM) | <25 |  |  |  | 
Cc1ccc2nc(N3CCCCC3)c3nnc(NC(=O)c4ccccc4)n3c2c1 | 80 (≈ 207 µM) | 160 (≈ 414 µM) | <25 | 20 |  | 10 | zone of inhibition at 500 µg/disc [7]: 10 mm; MIC [10]: 84 µg/mL (≈ 217 µM)
C[C@@]1(CO)[C@H](O)CC[C@@]2(C)[C@H]1CC[C@H]1C[C@@H]3C[C@@]12CC[C@]3(O)CO [APHIDICOLIN] | 5 (≈ 14.8 µM) | 20 (≈ 59.1 µM) | 100 |  |  |  | 
Cc1ccc2nc(N3CCN(c4ccccc4C)CC3)c3nnc(NC(=O)c4ccccc4)n3c2c1 | 80 (≈ 168 µM) | 160 (≈ 335 µM) | <25 |  |  |  | 
Cc1ccc2nc(Cl)c3nnc(/N=C/c4ccc(O)cc4)n3c2c1 | 80 (≈ 237 µM) | 160 (≈ 474 µM) | <25 |  |  |  | 
